Laboratory results taken from article PMC12227560, “Total synthesis of a sorrentanone ester library and evaluation of its antimicrobial potential” (Scientific Reports, 2025).
Values after ≈ are worked out from the molar mass of the structure shown.

Assays:
B. subtilis ATCC6633 = test: Antimicrobial broth micro-dilution assay (MIC); type: cell-based; conditions: Bacillus subtilis; B. subtilis ATCC6633; 24 h at 37 °C; highest tested concentration 250 µg/mL; read-out: Minimum inhibitory concentration (MIC)
From the text: (§1) 3. Bioactivity and Toxicity Assays
(§2) Antimicrobial assay: According to the standard broth micro-dilution assays, following the Standards of European Committee on Antimicrobial Susceptibility Testing (v 7.3.1: Method for the determination of broth dilution minimum inhibitory concentrations of antifungal agents for yeasts) for Candida spp., and according to the standard broth micro-dilution assays, recommended by the National Committee for Clinical Laboratory Standards (M07-A8) for bacteria MIC values of compounds were determinate. Compounds were dissolved in DMSO at a concentration of 50 mg/mL, and the highest tested concentration was 250 µg/mL. The inoculums were 1x10^5 colony forming units (CFU/mL), for Candida species, and bacteria species, 5x10^5 colony forming units (CFU/mL). The MIC value was recorded as the lowest concentration that inhibited the growth after 24 h at 37 °C. Additionally, 5 µL from each well of 96 well plates was transferred to Luria Agar (LA) plates for bacteria and Sabouraud agar (SAB) plates for Candida spp. and incubated for an additional 24 h at 37 °C, to determine MBC (Minimum bactericidal/fungicidal concentration) values. In Table 1. Are labeled compounds showing a difference in MBC and previously determined MIC values. […]

P. aeruginosa ATCC27853 = test: Antimicrobial broth micro-dilution assay (MIC); type: cell-based; conditions: Pseudomonas aeruginosa; P. aeruginosa ATCC27853; 24 h at 37 °C; highest tested concentration 250 µg/mL; read-out: Minimum inhibitory concentration (MIC)
From the text: as §1, §2

[1] = tested on: human lung fibroblast cell line (MRC-5); test: Cytotoxicity evaluation by MTT assay; type: cell-based; conditions: for cell survival: MRC-5 cells, 10 µg/mL, 48 h
From the text: as §1
Antimicrobial assay: According to the standard broth micro-dilution assays, following the Standards of European Committee on Antimicrobial Susceptibility Testing (v 7.3.1: Method for the determination of broth dilution minimum inhibitory concentrations of antifungal agents for yeasts) for Candida spp., and according to the standard broth micro-dilution assays, recommended by the National Committee for Clinical Laboratory Standards (M07-A8) for bacteria MIC values of compounds were determinate. Compounds were dissolved in DMSO at a concentration of 50 mg/mL, and the highest tested concentration was 250 µg/mL. The inoculums were 1x10^5 colony forming units (CFU/mL), for Candida species, and bacteria species, 5x10^5 colony forming units (CFU/mL). The MIC value was recorded as the lowest concentration that inhibited the growth after 24 h at 37 °C. Additionally, 5 µL from each well of 96 well plates was transferred to Luria Agar (LA) plates for bacteria and Sabouraud agar (SAB) plates for Candida spp. and incubated for an additional 24 h at 37 °C, to determine MBC (Minimum bactericidal/fungicidal concentration) values. In Table 1. Are labeled compounds showing a difference in MBC and previously determined MIC values.
Cytotoxicity evaluation: Antiproliferative activity was tested by MTT assay (3-(4,5-dimethylthiazol-2-yl)-2,5-diphenyltetrazoliumbromide) on a human lung fibroblast cell line (MRC-5; ATCC collection). Pre-grown (24 h) cell monolayers (1x10^4 cells per well) in RPMI 1640 medium supplemented with 100 μg/mL streptomycin, 100 U/mL penicillin, and 10% (v/v) FBS (all from Sigma, Munich, Germany) containing the tested compounds at concentrations ranging from 5 to 20 μg/mL were incubated in a humidified atmosphere of 95% air and 5% CO2 at 37 °C for 48 h. The cell viability (extent of MTT reduction) was measured spectrophotometrically at 540 nm using the Epoch 2000 multiplate reader, and the cell survival was expressed as a percentage of the control (untreated cells). Cytotoxicity was expressed as the concentration of the compound inhibiting cell growth by 50% (IC 50). […]

[2] = tested on: C. albicans ATCC 10231 hyphae formation; test: Filamentation test on Candida (solid spider medium); type: cell-based, Candida albicans; conditions: 0.5 times MIC; 120 h; C. albicans ATCC10231
Description: Filamentation test on Candida: Using solid composition, the effect of sorrentano ne […]
albicans cells from an overnight culture grown in Sabouraud dextrose broth medium at 37 °C with or without compounds were centrifuged for 10 minutes at maximum speed, and the pellet was washed several times with sterile PBS (phosphate -buffered saline). After it, the pellet was resuspended in 200 µL PBS, and 2 µL of cell suspension was poured over solid composition and incubated at 37 °C for 120 h. Morphological changes of C. albicans ATCC

[3] = tested on: C. albicans ATCC10231 biofilm formation; test: Anti-biofilm activity assessment (crystal violet); type: cell-based, Candida albicans; conditions: for inhibition of biofilm formation (in words): data not shown
Description: Anti-biofilm activity assessment: The effect of compounds on biofilms formation was determined on C. albicans ATCC 10231 strain. Anti -biofilm assays were conducted using a previously reported methodology with small modifica tions.9 The assay was carried out in 96 - well round-bottom polystyrene microtiter plates. Cells wer e harvested from overnight grown cultures, washed twice with sterile phosphate -buffered saline (PBS; Sigma -Aldrich, Munich, Germany), and resuspended in RPMI 1640 medium (Sigma -Aldrich) containing 2% glucose (w/v) at a concentration of 1 × 10^5 CFU/mL. C. albicans suspension was incubated with 0.5 MIC, 1 MIC, and 2 MIC compounds concentration in 200.0 μL final volume per well for 48 h at 37 °C to allow biofilm formation. Biofilm growth was analyzed by crystal violet (CV) staining of adherent cells and the a bsorbance at 590.0 nm was read on a Tecan Infinite 200 Pro multiplate reader (Tecan Group Ltd., Männedorf, Switzerland). […]

[4] = tested on: ergosterol in C. albicans; test: Ergosterol biosynthesis assay; type: cell-based, Candida albicans; conditions: 0.5 MIC; Candida cells; UV profile
Description: Ergosterol biosynthesis assay: Ergosterol levels were measured according to the published procedure with some minor modifications. 10 Briefly, a sing le C. albicans colony from an overnight Sabouraud dextrose agar plate was used to inoculate 50 ml of Sabouraud dextrose broth containing 0.5 MIC concentrated compounds. Incubation was performed for 18 h at 37 °C on the rotary shaker at 180 rpm. Cells were harvested by centrifugation at 3000 rpm for 5 min and washed once with sterile distilled water. The net wet weight of the cell pellet was determined. Three milliliters of 25% alcoholic potassium hydroxide solution (25 g of KOH and 35 ml of sterile distill ed water, brought to 100 ml with 100% ethanol), was added to each pellet and vortex mixed for 1 min and incubated in an 85 °C water bath for 1 h. Tubes were cooled to room temperature and extraction of sterols was done with the addition of a mixture of 1 ml of sterile distilled water and 3 ml of n-heptane followed by vigorous vortex mixing for 3 min. The heptane layer was used for spectrophotometrically measuring ergosterol concentrations by scanning absorbance between 240 nm and 300 nm using Ultrospec 3300pro 573 (Amer sham Biosciences, Amersham, UK).

[5] = tested on: two S. aureus strains and B. subtilis ATCC6633; test: Antimicrobial assay, Gram-positive bacteria; type: cell-based; conditions: from MIC values
From the text: as §1, §2

| SMILES | MIC (B. subtilis ATCC6633) [µg/mL] | MIC (P. aeruginosa ATCC27853) [µg/mL] | cell survival [1] | filamentation (in words) [2] | inhibition of biofilm formation (in words) [3] | reduction of total amount of ergosterol (in words) [4] | improvement of antibacterial activity compared to sorrentanone (7) [5] | selectivity index (SI) ([1]; cytotoxicity versus antibiotic activity, calculation not described) | inhibition of biofilm formation ([3]; sub-inhibitory concentration (0.5 times MIC), 48 h) |
| --- | --- | --- | --- | --- | --- | --- | --- | --- | --- |
| CC1=C(O)C(=O)C(C)=C(C(=O)OCCCC(C)C)C1=O [compound 36] | 31.2 (≈ 111 µM) | > 250 | over 60% | hardly observed | displayed inhibition of biofilm formation | most potent in reducing the total amount of ergosterol | two- to four-fold improved activity |  |  |
| CC1=C(O)C(=O)C(C)=C(C(=O)OCc2ccccc2)C1=O [compound 41] | 15.6 (≈ 54.5 µM) | > 250 | over 60% | hardly observed | displayed inhibition of biofilm formation | most potent in reducing the total amount of ergosterol | two- to four-fold improved activity | 0.77 | 60–77% |
